Test results published in patent US10918734B2 (Immunomedics, Inc., priority 2017, dated 2021).
Like-named read-outs stand apart in the source and are kept apart here.

How the values were obtained:
p53 = p53 expression in tumor cells; assay type: cell-based, human; details: BxPC-3 and Calu-3
Excerpt: (§1) SN-38 is known to activate several signaling pathways in cells, leading to apoptosis (e.g., Cusack et al., 2001, Cancer Res 61:3535-40; Liu et al. 2009, Cancer Lett 274:47-53; Lagadec et al., 2008, Br J Cancer 98:335-44). Our initial studies examined the expression of 2 proteins involved in early signaling events (p21^Waf1/Cip1 and p53) and 1 late apoptotic event [cleavage of poly-ADP-ribose polymerase (PARP)] in vitro (not shown).
(§2) In addition, p53 expression in cells exposed to the ADC was higher in both cell lines compared to SN-38 (not shown). […] In terms of later apoptotic events, cleavage of PARP was evident in both cell lines when incubated with either SN-38 or the conjugate (not shown). […] The higher degree of cleavage with free SN-38 over the ADC was consistent with the cytotoxicity findings.

[1] = system: poly-ADP-ribose polymerase (PARP); experiment: Cleavage of PARP in tumor cells; assay type: cell-based, human; details: BxPC-3 and Calu-3
Excerpt: as §1, §2

[2] = system: human SCLC tumors (DMS 53); assay type: in vivo, C.B.-17 SCID mice
Experimental: Female C.B.-17 SCID mice were injected s.c. with a tumor suspension made from of DMS 53 stock tumors (20% w/v) plus cells harvested from tissue culture (5×10^6 cells per mouse) mixed 1:1 with matrigel. […] All were administered twice weekly for 4 weeks. Two groups received only chemotherapy of either cisplatinum (5 mg/kg i.p.) or carboplatin (50 mg/kg i.p.) weekly for 4 weeks. […] A final untreated control group of mice received saline (100 μL i.p. twice weekly×4 wks). Tumors were measured and mice weighed twice weekly.

[3] = system: SK-MES-1 human squamous cell lung tumors; experiment: SK-MES-1 xenograft therapy; set-up: species or system nude mice; details: mouse, in vivo
MDA-MB-231 tumors = experiment: MDA-MB-231 parental tumor therapy; assay type: in vivo, mice
Experimental: (§3) Rad51 and DNA-breaks (g-H2A.X) were determined by Western blot. […] Tumors were measured and mice weighed twice weekly. Study survival endpoint was tumor progression to >1.0 cm^3.

C13 tumors = experiment: MDA-MB-231 Trop-2 transfectant C13 tumor therapy; assay type: in vivo, mice; details: for median survival time (MST): IMMU-132 0.5 mg twice wkly × 4, irinotecan 40 mg/kg q2dx5
Experimental: as §3

C39 tumors = experiment: MDA-MB-231 Trop-2 transfectant C39 tumor therapy; assay type: in vivo, mice; details: for median survival time (MST): IMMU-132 0.5 mg twice wkly × 4, irinotecan 40 mg/kg q2dx5
Experimental: as §3

[4] = system: SK-MES-1 squamous cell lung carcinoma; experiment: SK-MES-1 antitumor effect (FIG. 18); assay type: in vivo
Rad51 [5] = experiment: Rad51 expression in tumors taken from treated mice; assay type: in vivo; details: parental, C13 and C39 tumors
[6] = plasma esterase; cited from earlier work
advanced GI cancers = experiment: Phase I/II trial of IMMU-132 in advanced GI cancers: best response by RECIST, TTP; assay type: in vivo, human
Experimental: Patients with metastatic cancers were enrolled after failing standard therapy, starting at a dose of 8.0 mg/kg given on days 1 and 8 of a 3-week cycle.
Sixty patients with advanced GI cancers were enrolled in a Phase I/II trial.

[7] = system: diverse metastatic cancers; experiment: Phase I/II clinical trial of IMMU-132 (Example 8): response and TTP; assay type: in vivo, human
Rad51 [8] = experiment: Rad51 levels by Western blot in cells exposed to IMMU-132; assay type: cell-based, human; details: for increase in Rad51 level: MDA-MB-231, 24-h exposure
Experimental: as §3

HCC1806 TNBC = HCC1806 TNBC antitumor effect (FIG. 17); assay type: in vivo
[9] = human, in vivo
Capan-1 tumors = experiment: Capan-1 xenograft therapy; assay type: in vivo, nude mice; details: day 140; 0.2 mg/kg SN-38 twice weekly x 4 weeks
p21^Waf1/Cip1 = experiment: p21Waf1/Cip1 expression in tumor cells; assay type: cell-based, human
Excerpt: as §1

Calu-3 tumors = experiment: Calu-3 xenograft therapy; assay type: in vivo, nude mice; details: 0.4 mg/kg SN-38; tumor-free until day 147
[10] = Tolerability in Cynomolgus monkeys; assay type: in vivo, Cynomolgus monkeys (Macaca fascicularis)
[11] = system: BxPC3 human pancreatic carcinoma; details: FIG. 2
[12] = mouse, in vivo
[13] = human, in vivo; remark: listed apart in the source
[14] = Tolerability in Swiss-Webster mice; details: normal mice; 1,500 mg/kg of the conjugate
[15] = day 73, IMMU-132 250 μg (alone twice weekly, in combination weekly)

CCc1c2c(nc3ccc(O)cc13)-c1cc3c(c(=O)n1C2)COC(=O)[C@]3(O)CC [SN-38, reference compound]
exposure time at which upregulation of p53 was evident (p53): 48 h | cleavage of PARP [1]: evident

N.N.O=C([O-])C1(C(=O)[O-])CCC1.[Pt+2] [carboplatin, reference compound]
mean tumor volume ([2]; day 41 (therapy day 14)): 0.602±0.224 cm^3

N.N.[Cl][Pt][Cl] [cisplatinum, reference compound]
mean tumor volume [2, 15]: 0.758±0.240 cm^3

CCc1c2c(nc3ccc(OC(=O)N4CCC(N5CCCCC5)CC4)cc13)-c1cc3c(c(=O)n1C2)COC(=O)[C@]3(O)CC [irinotecan, reference compound]
antitumor effect vs specific hRS7-SN-38 conjugate [3]: provided the same antitumor effects | median survival time (MDA-MB-231 tumors; 40 mg/kg q2dx5): 26.5 days | median survival time (C13 tumors; 40 mg/kg q2dx5): 35 days | median survival time (MST) (C13 tumors): 35 days | median survival time (MST) (C39 tumors): 28 days | antitumor effects [4]: significant antitumor effects | Rad51 in tumors from treated mice (Rad51 [5]): up-regulation of Rad51 within 24 h | conversion rate to SN-38 [6]: greater than 50%

IMMU-132
gastric cancer patients with SD (advanced GI cancers; 3 with CT assessment): 3 | esophageal cancer patients with PR (advanced GI cancers; 8 with CT assessment): 1 | esophageal cancer patients with SD (advanced GI cancers; 8 with CT assessment): 4 | pancreatic cancer patients with SD as best response (advanced GI cancers; 15 treated (5 at 8, 7 at 10, 3 at 12 mg/kg)): 7 | CRC patients with SD as best response by RECIST (advanced GI cancers; 29 CRC patients): 14 | CRC patients with PR as best response by RECIST (advanced GI cancers; 29 CRC patients (9 at 10 mg/kg, 20 at 8 mg/kg)): 1 | extent of the PR (advanced GI cancers; CRC): ~65% | CT-assessable PDC patients with SD ([7]; 8 of 13): 62% | patients with disease response ([7]; 48 patients (excluding PDC)): 79% | antitumor effect compared to saline control ([2]; 500, 250 or 100 μg i.p. twice weekly for 4 weeks): significant antitumor effect | mean tumor volume [2, 15]: 0.745±0.162 cm^3 | Rad51 up-regulation above untreated background (Rad51 [8]; C13 and C39, 24 h): ~2.5 fold | increase in Rad51 level (Rad51 [8]; 25 nM SN-38-equivalents): greater than 2 fold | increase in Rad51 level (Rad51 [8]; 100 nM): 4 fold | increase in Rad51 levels (Rad51 [8]; MDA-MB-231 cells, 24 h): > 2 fold | change in Rad51 (Rad51 [8]; SK-MES-1, HCC1806): Neither SK-MES-1 nor HCC1806 cells demonstrated any increases in Rad51 | effect on Rad51 levels (Rad51 [8]; SK-MES-1 or HCC1806): no effect | median survival time (MST) (MDA-MB-231 tumors; 0.5 mg twice wkly × 4, endpoint tumor >1.0 cm^3): 21 days | effect on tumor growth (MDA-MB-231 tumors; FIG. 19): no effect on tumor growth | effect on survival (MDA-MB-231 tumors; FIG. 22): no antitumor effect on survival | efficacy (MDA-MB-231 tumors; past studies, FIG. 16): neither IMMU-132 nor irinotecan demonstrated any efficacy | effect on tumor growth (C13 tumors; FIG. 20): effective to inhibit tumor growth | median survival time (MST) (C13 tumors): > 70 days | effect on tumor growth (C39 tumors; FIG. 21): effective to inhibit tumor growth | median survival time (MST) (C39 tumors): > 70 days | antitumor effects (HCC1806 TNBC): significant antitumor effects | antitumor effects [4]: significant antitumor effects | Rad51 in tumors from treated mice (Rad51 [5]): up-regulation of Rad51 within 24 h | Abdominal pain, Grade 3 [9]: 0 | Abdominal pain, Grade 4 [9]: 0 | Anemia, Grade 3 [9]: 2 (4%) | Anemia, Grade 4 [9]: 0 | Deep vein thrombosis, Grade 3 [9]: 1 (2%) | Deep vein thrombosis, Grade 4 [9]: 0 | Diarrhea, Grade 3 [9]: 4 (9%) | Diarrhea, Grade 4 [9]: 0 | Dysgeusia, Grade 3 [9]: 0 | Dysgeusia, Grade 4 [9]: 0 | Fatigue, Grade 3 [9]: 4 (9%) | Fatigue, Grade 4 [9]: 0 | Hypokalemia, Grade 3 [9]: 1 (2%) | Hypokalemia, Grade 4 [9]: 0 | Nausea, Grade 3 [9]: 0 | Nausea, Grade 4 [9]: 0 | Neutropenia, Grade 3 [9]: 11 (24%) | Neutropenia, Grade 4 [9]: 2 (4%) | Pyrexia, Grade 3 [9]: 0 | Pyrexia, Grade 4 [9]: 0 | Vomiting, Grade 3 [9]: 1 (2%) | Vomiting, Grade 4 [9]: 0 | WBC Decrease, Grade 3 [9]: 1 (2%) | WBC Decrease, Grade 4 [9]: 0 | neutropenia ≥G3 [9]: 28%

hA20-CL2A-SN-38 [reference compound]
mice tumor-free at end of study (Capan-1 tumors): 20% | antitumor effect vs specific hRS7-SN-38 conjugate [3]: provided the same antitumor effects

hRS7 IgG
effect on p21Waf1/Cip1 expression (p21^Waf1/Cip1): no appreciable effect | exposure time at which upregulation of p53 was evident (p53): 48 h

hRS7-CL2-SN-38
mice tumor-free at end of study (Capan-1 tumors): 40% | time within which all mice were cured (Calu-3 tumors): ≤ 28 days

hRS7-CL2A-SN-38
mice tumor-free at end of study (Capan-1 tumors): 50% | increase in p21Waf1/Cip1 expression over free SN-38 (p21^Waf1/Cip1; Calu-3): more than 2 fold | exposure time at which upregulation of p53 was evident (p53): ≤ 24 h | cleavage of PARP [1]: evident | blood count data ([10]; 2×0.96 mg SN-38/kg, transient decreases): values did not fall below normal ranges | human equivalent dose of MTD (2 doses) ([10]; cynomolgus monkey, in vivo): 0.3-0.6 mg/kg SN-38 | therapeutic efficacy vs control treatments [11]: better therapeutic efficacy than control treatments | AST level [12]: > 298 U/L | histology at termination [12]: no histologic evidence of tissue damage | glucose levels (slightly elevated) ([12]; 8 mg/kg): 273 to 320 mg/dL | mice with slightly elevated glucose levels ([12]; 8 mg/kg): 5 of 7

hRS7-SN-38
cumulative human equivalent dose tolerated by monkeys ([10]; cynomolgus monkey, in vivo): 22 mg/m^2 | dose tolerated by monkeys ([10]; only minor, reversible toxicities): 24 mg SN-38 equivalents/kg | reduction in target lesions at first CT assessment ([7]; person with CRC, starting dose 8 mg/kg): 37% | SN-38 released daily [13]: 50% | time within which the conjugate cleared from the serum [13]: ≤ 3 days | cumulative dose over 1 week without acute toxicity [14]: 24 mg/kg SN-38
